One may read the Kd as the concentration at which binding is half-saturated. As usually defined, the IC50 is the concentration that inhibits the measured activity by half.

Data on eight molecules can be found in ChEMBL document CHEMBL1153759, “Surface plasmon resonance-based detection of ladder-shaped polyethers by inhibition detection method” (Bioorg Med Chem Lett, 2009).

The target of assay [1] is 3',5'-cyclic-AMP phosphodiesterase 4D (Homo sapiens, UniProt Q08499). Description: Binding affinity to recombinant PDE4D by surface plasmon resonance assay.
Sequence of 3',5'-cyclic-AMP phosphodiesterase 4D (Q08499 whole entry): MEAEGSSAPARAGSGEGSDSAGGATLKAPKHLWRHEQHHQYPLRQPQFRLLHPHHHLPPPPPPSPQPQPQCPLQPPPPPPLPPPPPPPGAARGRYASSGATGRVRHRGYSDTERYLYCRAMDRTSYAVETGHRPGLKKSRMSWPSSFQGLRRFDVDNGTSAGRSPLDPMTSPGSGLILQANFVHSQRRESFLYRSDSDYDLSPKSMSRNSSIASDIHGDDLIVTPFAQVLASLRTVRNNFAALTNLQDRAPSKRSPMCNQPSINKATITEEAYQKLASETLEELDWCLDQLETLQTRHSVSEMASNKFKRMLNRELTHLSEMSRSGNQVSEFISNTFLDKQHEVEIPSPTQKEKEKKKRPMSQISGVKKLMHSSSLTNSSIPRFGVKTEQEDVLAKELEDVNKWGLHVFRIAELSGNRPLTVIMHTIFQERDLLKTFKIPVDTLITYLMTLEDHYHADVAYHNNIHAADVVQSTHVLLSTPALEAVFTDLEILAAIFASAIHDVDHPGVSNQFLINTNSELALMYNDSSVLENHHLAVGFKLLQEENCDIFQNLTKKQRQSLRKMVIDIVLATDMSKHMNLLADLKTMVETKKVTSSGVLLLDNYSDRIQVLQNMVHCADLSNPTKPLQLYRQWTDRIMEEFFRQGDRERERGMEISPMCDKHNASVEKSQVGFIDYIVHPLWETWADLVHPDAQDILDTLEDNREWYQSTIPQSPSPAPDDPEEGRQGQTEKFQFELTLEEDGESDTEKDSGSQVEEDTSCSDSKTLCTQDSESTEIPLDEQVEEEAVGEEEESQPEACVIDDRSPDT
Assay [2] is described as follows: (§1) Inhibition of bovine spleen PDE2 by surface plasmon resonance assay. Details: species or system Bos taurus. (Surface plasmon resonance follows binding to a sensor surface in real time, without labels.)
The species named for assay [3] is Bos taurus. Description: Inhibition of bovine spleen PDE2 up to 100 uM after 20 to 40 seconds by surface plasmon resonance assay.
The species entered for assay [4] is Bos taurus. Described as §1.
Assay [5] is described as follows: Binding affinity to bovine spleen PDE2 by surface plasmon resonance assay. Details: species or system Bos taurus.

The source made the active and inactive calls. The calls are words filed in the database; no cut-off is given here.

In the case of `C[C@@]12CC[C@@H]3O[C@H](CO)[C@@H](O)C[C@H]3O[C@H]1C[C@H]1O[C@@H](CCOCc3ccccc3)[C@H](OCc3ccccc3)C[C@@H]1O2`, in assay [1], the Kd worked out at 11 µM. In assay [2], this molecule registered an IC50 of 13 µM.
In the same order, the values of `C[C@@]12CC[C@@H]3O[C@H](CO)[C@@H](O)C[C@H]3O[C@H]1C[C@H]1O[C@@H](CCO)[C@H](O)C[C@@H]1O2` are 29 µM and greater than 100 µM.
`OC[C@H]1O[C@@H](CCOCc2ccccc2)[C@H](OCc2ccccc2)C[C@@H]1O`: in assay [1], the Kd worked out at 80 µM. In assay [2], the concentration for half-maximal inhibition (IC50) was greater than 100 µM.
In the same order, the values of `C[C@@]12CC[C@@H]3O[C@@H]4C[C@@H]5O[C@@H]6C[C@H](O)[C@@H](CO)O[C@H]6CC[C@@]5(C)O[C@H]4C[C@H]3O[C@H]1C[C@H]1O[C@@H](CCOCc3ccccc3)[C@H](OCc3ccccc3)C[C@@H]1O2` are 4.8 µM and 9.2 µM.
Regarding `C=C(C=O)C[C@@H]1C[C@H](O)[C@]2(C)O[C@@H]3C[C@@H]4O[C@@H]5C[C@]6(C)O[C@]7(C)CC[C@@H]8O[C@@H]9C[C@]%10(C)O[C@@H]%11C(C)=CC(=O)O[C@H]%11C[C@H]%10O[C@H]9C[C@@H](C)[C@H]8O[C@H]7C[C@H]6O[C@H]5C/C=C\[C@H]4O[C@H]3C[C@H]2O1` [BREVETOXIN], in assay [1], the Kd stood at 3.8 µM. It took 1.8 µM to reach half-maximal inhibition in assay [2] (IC50). For the same molecule, the inhibition entry in the assay listed under Bos taurus [3] is “Active”.
In the case of `C=CCC(=C)/C=C/[C@@](C)(O)[C@H]1O[C@@H]2C[C@@H]3O[C@@H]4C[C@@H]5O[C@@H]6C[C@@H]7O[C@@H]8C[C@@H]9O[C@@H]%10C[C@@H]%11O[C@](C)(CCO)[C@@H](O)C[C@H]%11O[C@H]%10C[C@H]9O[C@H]8CC[C@@]7(C)O[C@@]6(C)CC[C@H](C)[C@H]5O[C@H]4C[C@@]3(C)O[C@H]2CC1=C` [DESULFATED YESSOTOXIN], the Kd in assay [1] amounted to 2 µM. Further, in the assay filed under Bos taurus [4], the inhibition entry is “Dose-dependent effect”. Also, the IC50 in assay [2] is 1.7 µM. Besides, the inhibition entry in the assay filed under Bos taurus [3] was “Active”.
In turn, `CC[C@@H](C(=O)[C@@H](C)[C@@H](O)[C@H](C)[C@@H]1O[C@@H]([C@@H](CC)C(=O)O)CC[C@@H]1C)[C@H]1O[C@]2(C=C[C@@H](O)[C@]3(CC[C@@](C)([C@H]4CC[C@](O)(CC)[C@H](C)O4)O3)O2)[C@H](C)C[C@@H]1C` [SALINOMYCIN SODIUM] yielded a 50% inhibitory concentration (IC50) in assay [2] greater than 100 µM.
Take `C=CCC(=C)/C=C/[C@@](C)(O)[C@H]1O[C@@H]2C[C@@H]3O[C@@H]4C[C@@H]5O[C@@H]6C[C@@H]7O[C@@H]8C[C@@H]9O[C@@H]%10C[C@@H]%11O[C@](C)(CCOS(=O)(=O)O)[C@@H](OS(=O)(=O)O)C[C@H]%11O[C@H]%10C[C@H]9O[C@H]8CC[C@@]7(C)O[C@@]6(C)CC[C@H](C)[C@H]5O[C@H]4C[C@@]3(C)O[C@H]2CC1=C` [YESSOTOXIN]: the Kd was 1 µM in assay [1] and 2.2 µM in assay [5]. Moreover, 3 µM corresponded to half-maximal inhibition in assay [2] (IC50). Besides, the inhibition result in the assay filed under Bos taurus [3] is “Active”.
